# Where a name gives a salt, the structure may show the parent alone.
# Assays:
# mice = assay: Proconvulsant properties of bupropion salts: clonic convulsions in mice; conditions: for Mean Number of Convulsions/Mouse / Total Number of convulsions: N=13
# Protocol: Number of convulsions and the intensity of the convulsions were recorded.
# Mild: Head and tail slightly extended and little jerking; Moderate: Head and tail fully extended with some jerking; Severe: Head and tail fully extended with strong jerking. […] Step 2: To further investigate the patterns of convulsion occurrence using loglinear Poisson regression models. The number of convulsions was analyzed using the loglinear Poisson regression models with formulation, dose, and severity as predictors.
# CD-1 mice = assay: clonic convulsions in CD-1 mice after intraperitoneal dosing (range finding and main study)
# Protocol: Two studies were performed to investigate the relative proconvulsant properties of the two bupropion salts. In the first instance a range finding study was performed to establish the appropriate dose range for the main study. In each study the mice were divided into two dose groups and injected intraperitoneally with either bupropion HCl or bupropion HBr.
# A clonic convulsion was defined as a stiffening of the animal followed by jerking movements. The convulsions were classified as mild, moderate and severe according to the following descriptions.
# Mild: Head and tail slightly extended and little jerking
# Moderate: Head and tail fully extended with some jerking
# Severe: Head and tail fully extended with strong jerking
# Post-treatment findings recorded included continuous observation for 120 minutes for evidence of clonic convulsions, and intermittent (fixed) observations for 24 hours for other signs, including tonic convulsions, movement, activity, paralysis, gait and evidence of recovery.
# Rj: Wistar (Han) rats = assay: EEG trace monitoring and behavioural observations in conscious rats
# Protocol: The effects of the two bupropion salt forms hydrochloride and hydrobromide on central nervous system activity after intraperitoneal administration were evaluated by means of EEG trace monitoring in conscious rats. The method which detects electroencephalographic activity in conscious rats follows that described by Dürmüller et al., (2000) Vigilance-Controlled Quantified EEG in Safety Pharmacology, Current Protocols in Pharmacology Unit 10.6. The study was conducted at Porsolt & Partners Pharmacology, Research Laboratory, Z. A. des Suhards—B.P. 9, 53940 Le Genest-Saint-Isle, France.
# Substances: The formulation excipient used was physiological saline (Laboratoire Aguettant). […] All substances were stored in a dry, dark, controlled access area and maintained at a controlled ambient temperature of about 20±3° C. The vehicle solutions were stored at about +4° C. The substances were administered in a volume of 5 ml/kg body weight. The doses of bupropion hydrochloride are expressed in mg/kg of salt. […] The substances were dissolved in physiological saline and prepared freshly at each day of experimentation.
# Test systems: The rats used were male Rj: Wistar (Han) rats, weighing from about 280 g to 324 g at the time of implantation. They were supplied by Elevage Janvier, 53940 Le Genest-Saint-Isle, France. […] Upon delivery to the laboratory, the animals were housed in groups of 5 animals maximum, in macrolon cages (44×28×19 cm) containing wood litter (Litalabo—SPPS, 95100 Argenteuil, France). The animals had free access to food (Code 113—SAFE, 89290 Augy, France) and tap water. The animal house was maintained under artificial lighting (12 hrs) from 7:00 to 19:00 in a controlled ambient temperature of about 21±3° C. and relative humidity maintained at from about 30% to about 80%. […] Except during the test sessions, the animals had free access to food (Code 113) and tap water. The animals were identified by marking the connector fixed on the animal's head with an indelible pen. Rats were sacrificed at the end of the experiments by lethal injection of pentobarbital (>100 mg/kg i.p.). Animals were not submitted to necropsy. There is no reason to expect that contaminants were present in the feed, water or bedding at levels capable of interfering with the results of the tests. No checks were performed for this particular study.
# Electrode implantation procedure: Implantation surgery was carried out under aseptic conditions. Rats, anesthetized with sodium pentobarbital (60 mg/kg i.p., plus supplementary doses of from about 5 mg/kg to about 10 mg/kg to maintain anesthesia until surgery completion) were implanted with 2 surface EEG electrodes, comprised of miniature titanium screws, placed bilaterally over the frontal-parietal cortex and 2 depth electrodes, comprised of twisted platinium-iridium wires, placed stereotaxically into the hippocampus CA3 area (Paxinos and Watson coordinates interaural: AP+5.0 mm, L±2.5 mm, V+7.0 mm). An additional screw, placed over the right occipital cortex, served as ground electrode. The electrodes were connected to small plugs and the whole assembly was secured on the skull with dental acrylate.
# Apparatus: For the EEG recording, the animals were placed in rectangular Plexiglas cubicles (30×10×25 cm) mounted on treadmills. Five recording units were run in parallel. A turning commutator was attached above the centre of each cubicle, about 30 cm above walking level. On one side, it was connected via an electrically shielded multicore cable to the animal and on the other side to the signal conditioning system (Coulbourn Model V75-01). The system filters were set for all channels to high pass 1 Hz and low pass 150 Hz, respectively. The amplification levels were kept at from 1000× to 10000×. The EEG signals were acquired and processed on a PC (DELL GX620-2800) installed with a 16 channel 200 kHz/12-bit AD acquisition card (NI PCI-6023E).
# [1] = 150 mg/kg, Moderate, hydrochloride
# [2] = 150 mg/kg, Severe, hydrochloride
# [3] = 100 mg/kg i.p., pooled data N = 13/dose group, hydrochloride
# [4] = 150 mg/kg i.p., pooled data N = 13/dose group, hydrochloride
compound,measurement,setting,value
"CC(NC(C)(C)C)C(=O)c1cccc(Cl)c1 (centres unmarked) [Bupropion HCl, bupropion hydrochloride]","Mean Number of Convulsions/Mouse, cumulative","mice; 100 mg/kg, All, hydrochloride",0.23
same,Mean Number of Convulsions/Mouse,"mice; 100 mg/kg, Mild, hydrochloride",0.0
same,Total Number of convulsions,"mice; 100 mg/kg, Mild, hydrochloride",0
same,Mean Number of Convulsions/Mouse,"mice; 100 mg/kg, Moderate",0.08
same,Total Number of convulsions,"mice; 100 mg/kg, Moderate",1
same,"Mean Number of Convulsions/Mouse, cumulative","mice; 100 mg/kg, Severe + Moderate, hydrochloride",0.23
same,Mean Number of Convulsions/Mouse,"mice; 100 mg/kg, Severe, 120 min observation, hydrochloride",0.15
same,Total Number of convulsions,"mice; 100 mg/kg, Severe, hydrochloride",2
same,"Mean Number of Convulsions/Mouse, cumulative","mice; 150 mg/kg, All, hydrochloride",71.00
same,Mean Number of Convulsions/Mouse,"mice; 150 mg/kg, Mild, hydrochloride",6.23
same,Total Number of convulsions,"mice; 150 mg/kg, Mild, hydrochloride",81
same,Mean Number of Convulsions/Mouse,mice; [1],8.69
same,Total Number of convulsions,mice; [1],113
same,"Mean Number of Convulsions/Mouse, cumulative","mice; 150 mg/kg, Severe + Moderate, hydrochloride",64.77
same,Mean Number of Convulsions/Mouse,mice; [2],56.08
same,Total Number of convulsions,mice; [2],729
same,Mean Number of Convulsions/Mouse,"CD-1 mice; 75 mg/kg i.p. (as Bupropion HCl, HBr equimolar), range-finding study, N = 3/dose group",0
same,Mean Intensity of Convulsions/Mouse % of Total: Mild,CD-1 mice; [3],0.0 % of Total
same,Mean Intensity of Convulsions/Mouse % of Total: Moderate,CD-1 mice; [3],33.3 % of Total
same,Mean Intensity of Convulsions/Mouse % of Total: Severe,CD-1 mice; [3],66.7 % of Total
same,Mean Number of Convulsions/Mouse,CD-1 mice; [3],0.2
same,numbers of mice that had convulsions in the dose group,CD-1 mice; [3],2/13
same,numbers of mice that had convulsions in the dose group,"CD-1 mice; 100 mg/kg i.p., range-finding study, N = 3/dose group",2/3
same,Mean Number of Convulsions/Mouse,"CD-1 mice; 100 mg/kg i.p., range-finding study, N = 3/dose group, hydrochloride",1.0
same,Mean Number of Convulsions/Mouse,"CD-1 mice; 100 mg/kg i.p., second (main) study, N = 10/dose group, hydrochloride",0
same,numbers of mice that had convulsions in the dose group,"CD-1 mice; 150 mg/kg i.p., pooled data N = 13/dose group",13/13
same,Mean Intensity of Convulsions/Mouse % of Total: Mild,CD-1 mice; [4],8.8 % of Total
same,Mean Intensity of Convulsions/Mouse % of Total: Moderate,CD-1 mice; [4],12.2 % of Total
same,Mean Intensity of Convulsions/Mouse % of Total: Severe,CD-1 mice; [4],79.0 % of Total
same,Mean Number of Convulsions/Mouse,CD-1 mice; [4],71.0
same,numbers of mice that had convulsions in the dose group,"CD-1 mice; 150 mg/kg i.p., range-finding study, N = 3/dose group",3/3
same,Mean Number of Convulsions/Mouse,"CD-1 mice; 150 mg/kg i.p., range-finding study, N = 3/dose group, hydrochloride",32.0
same,numbers of mice that had convulsions in the dose group,"CD-1 mice; 150 mg/kg i.p., second (main) study, N = 10/dose group",10/10
same,Mean Number of Convulsions/Mouse,"CD-1 mice; 150 mg/kg i.p., second (main) study, N = 10/dose group, hydrochloride",82.7
same,numbers of mice that had convulsions in the dose group,"CD-1 mice; […] i.p., pooled data N = 13/dose group, hydrochloride",13/13
same,numbers of mice that had convulsions in the dose group,"CD-1 mice; […] i.p., range-finding study, N = 3/dose group",3/3
same,numbers of mice that had convulsions in the dose group,"CD-1 mice; […] i.p., second (main) study, N = 10/dose group, hydrochloride",10/10
same,threshold for tonic convulsions,"CD-1 mice; range finding study, i.p., hydrochloride",100 mg/kg
Br.CC(NC(C)(C)C)C(=O)c1cccc(Cl)c1 (centres unmarked) [bupropion hydrobromide],abnormal behavior,Rj: Wistar (Han) rats; 60 mg/kg i.p.,One rat in the bupropion hydrobromide group had a fatal whole body clonus immediately after administration
same,EEG ANALYSIS Burst cx,"Rj: Wistar (Han) rats; rat, in vivo, ip, 10 mg/kg",−
same,EEG ANALYSIS Burst hipp,"Rj: Wistar (Han) rats; rat, in vivo, ip, 10 mg/kg",−
same,EEG ANALYSIS Complex spike cx,"Rj: Wistar (Han) rats; rat, in vivo, ip, 10 mg/kg",−
same,EEG ANALYSIS Complex spike hipp,"Rj: Wistar (Han) rats; rat, in vivo, ip, 10 mg/kg",−
same,EEG ANALYSIS High amplitude fast frequency cx,"Rj: Wistar (Han) rats; rat, in vivo, ip, 10 mg/kg",−
same,EEG ANALYSIS High amplitude fast frequency hipp,"Rj: Wistar (Han) rats; rat, in vivo, ip, 10 mg/kg",−
same,EEG ANALYSIS High frequency burst activity cx,"Rj: Wistar (Han) rats; rat, in vivo, ip, 10 mg/kg",−
same,EEG ANALYSIS High frequency burst activity hipp,"Rj: Wistar (Han) rats; rat, in vivo, ip, 10 mg/kg",−
same,EEG ANALYSIS Long seizure activity cx,"Rj: Wistar (Han) rats; rat, in vivo, ip, 10 mg/kg",−
same,EEG ANALYSIS Long seizure activity hipp,"Rj: Wistar (Han) rats; rat, in vivo, ip, 10 mg/kg",−
same,EEG ANALYSIS Post ictual activity cx,"Rj: Wistar (Han) rats; rat, in vivo, ip, 10 mg/kg",−
same,EEG ANALYSIS Post ictual activity hipp,"Rj: Wistar (Han) rats; rat, in vivo, ip, 10 mg/kg",−
same,EEG ANALYSIS Repetitive isolated spike cx,"Rj: Wistar (Han) rats; rat, in vivo, ip, 10 mg/kg",−
same,EEG ANALYSIS Repetitive isolated spike hipp,"Rj: Wistar (Han) rats; rat, in vivo, ip, 10 mg/kg",−
same,EEG ANALYSIS Sharp waves hipp,"Rj: Wistar (Han) rats; rat, in vivo, ip, 10 mg/kg",−
same,EEG ANALYSIS Short seizure activity cx,"Rj: Wistar (Han) rats; rat, in vivo, ip, 10 mg/kg",−
same,EEG ANALYSIS Short seizure activity hipp,"Rj: Wistar (Han) rats; rat, in vivo, ip, 10 mg/kg",−
same,EEG ANALYSIS Spike-and-waves cx,"Rj: Wistar (Han) rats; rat, in vivo, ip, 10 mg/kg",−
same,EEG ANALYSIS Spike-and-waves hipp,"Rj: Wistar (Han) rats; rat, in vivo, ip, 10 mg/kg",−
same,EEG ANALYSIS Sharp waves cx,"Rj: Wistar (Han) rats; rat, in vivo, ip, 30 mg/kg",−
same,EEG ANALYSIS Sharp waves hipp,"Rj: Wistar (Han) rats; rat, in vivo, ip, 30 mg/kg",−
same,EEG ANALYSIS Spike-and-waves hipp,"Rj: Wistar (Han) rats; rat, in vivo, ip, 30 mg/kg",−
same,EEG ANALYSIS Sharp waves cx,"Rj: Wistar (Han) rats; rat, in vivo, ip, 60 mg/kg",−
same,EEG ANALYSIS Sharp waves hipp,"Rj: Wistar (Han) rats; rat, in vivo, ip, 60 mg/kg",−
same,EEG ANALYSIS Spike-and-waves cx,"Rj: Wistar (Han) rats; rat, in vivo, ip, 60 mg/kg",−
same,EEG ANALYSIS Spike-and-waves hipp,"Rj: Wistar (Han) rats; rat, in vivo, ip, 60 mg/kg",−
same,EEG ANALYSIS Sharp waves cx,"Rj: Wistar (Han) rats; rat, in vivo, ip, 100 mg/kg",−
same,EEG ANALYSIS Sharp waves hipp,"Rj: Wistar (Han) rats; rat, in vivo, ip, 100 mg/kg",−
same,EEG ANALYSIS Spike-and-waves cx,"Rj: Wistar (Han) rats; rat, in vivo, ip, 100 mg/kg",−
same,EEG ANALYSIS Spike-and-waves hipp,"Rj: Wistar (Han) rats; rat, in vivo, ip, 100 mg/kg",−
same,"Mean Number of Convulsions/Mouse, cumulative","mice; 100 mg/kg, All",0.77
same,reduction in the number of convulsant mice versus HCl salt,"CD-1 mice; […] dose level, pooled data",15.4%

# From patent US7645802B2 (Biovail Laboratories International SRL., priority 2005, dated 2010)
